pIC50: −log10 of the molar value. Where two headings read alike, the source gives them in different places.
What was measured:
OVCAR-3 cells = assay: OVCAR-3 cell proliferation (CellTiter-Glo); format: cell-based; details: Homo sapiens, read-out: Inhibition of proliferation of OVCAR3 cells (IC50 in M)
Description: OVCAR-3 was used as the cell line to model for ovarian cancer in vitro and in vivo. This cell line was obtained from ATCC (Catalog #HTB-161) and is an adenocarcinoma line from the malignant ascites of a patient with progressive adenocarcinoma of the ovary and embodies a preclinical model of high-grade, serous ovarian cancer (HGSOC). OVCAR-3 has been deemed an appropriate model system in which to study drug resistance in ovarian cancer, and the presence of hormone receptors should be useful for the evaluation of hormonal therapy. OVCAR-3 is resistant to clinically relevant concentrations of adriamycin, melphalan and cisplatin.
(§1) Compounds 1-5 were tested at different concentrations (from 4 μM to 126.4 pM; 0.5 log serial dilutions) for their ability to inhibit the proliferation of OVCAR-3 cells. Cells were grown in ATCC-formulated RPMI-1640 Medium (ATCC 30-2001)+10% FBS. The cells were cultured at 37° C. in a humidified chamber in the presence of 5% CO2. Proliferation assays were conducted over a 72 hour time period.
(§2) Cells were cultured and maintained as described above, with cells always fed on the day prior to assay. Assays were run with a 2 hour compound exposure followed by a washout and then a 72 hour proliferation time or exposed to the test compounds for 72 hours with no washout of compound. DMSO was used as a control in all wells not receiving test compound and DMSO wells were used for plate normalization. Proliferation and survival of cells was quantified based on the amount of total ATP following cell lysis as determined by using a standard assay kit used according to manufacturer's instructions. Experiments were performed in the same media used by each cell type for growth and maintenance. Cells (5×10^4) were plated in 96 well plates for compound exposure. CellTiter-Glo® (Promega Corporation, Madison, Wis. USA) was used to assess the anti-proliferative effects of the compounds following manufacturer's directions and utilizing the reagents supplied with the CellTiter-Glo® kit.

HCC70 cells = assay: HCC70 cell proliferation (CellTiter-Glo); format: cell-based; details: Homo sapiens, read-out: Inhibition of Proliferation of HCC70 Cells (IC50 in M)
Method: HCC70 was the cell line used as a model of triple-negative breast cancer (TNBC). This cell line was obtained from ATCC and was initiated from a primary ductal carcinoma in 1992 (Catalog #CRL-2315; mammary gland primary ductal carcinoma). The HCC-70 tumor cell line was maintained in vitro as a monolayer culture in RPMI-1640 medium supplemented with 10% heat inactivated fetal bovine serum at 37° C. in an atmosphere of 5% CO2 in air.
as §1, with “Representative compounds” for “Compounds 1-5”, “HCC70” for “OVCAR-3”
as §2

RNA polymerase II [1] = assay: Ex vivo RNA polymerase II phosphorylation (pS2/S2) in cynomolgus PBMCs; format: cell-based; details: Macaca fascicularis, PBMC; moPBMCs, 2 hours
Method: (§3) The ability of the compounds to inhibit phosphorylation of peripheral blood mononuclear cells (PBMCs) was analyzed ex vivo. Compounds 1 and 4 were dosed at concentrations between 4 μM to 126.4 pM (0.5 log serial dilutions) for 2 hours. The amount of phosphorylated RNA polymerase II and the total amount of RNA polymerase II was analyzed. The values were normalized by taking the ratio of the phosphorylated RNA polymerase II to the total RNA polymerase II (pS2/S2).

CDK2 = target: T1, CDK2 (Homo sapiens, UniProt P24941); assay: Radiometric kinase assay (33PanQinase); format: biochemical; details: read-out: Inhibition of CDK Activity (molar inhibition in a radiometric assay)
T1 construct: either as full-length or enzymatically active fragments; purchased ProQinase GmbH (Reaction Biology); host or cells: Sf9 insect cells or E. coli
Method: (§4) The compounds 1-5 (see Table 1) were assayed for kinase activity at ProQinase (ProQinase GmbH, Reaction Biology; Freiburg, Germany) using their commercially available radiometric kinase assay services. Briefly, the compounds were provided as solids and were dissolved to 1×10^−03 M/100% DMSO stock solutions on the day of assay. All protein kinases were provided by ProQinase and were expressed in Sf9 insect cells or in E. coli as recombinant GST-fusion proteins or His-tagged proteins, either as full-length or enzymatically active fragments. All kinases were produced from human cDNAs and purified by either GSH-affinity chromatography or immobilized metal. The purity of the protein kinases was examined by SDS-PAGE/Coomassie staining, the identity was checked by mass spectroscopy. A radiometric protein kinase assay (^33PanQinase® Activity Assay) was used for measuring the kinase activity of the protein kinase. All kinase assays were performed in 96-well FlashPlates™ from PerkinElmer (Boston, Mass., USA) in a 50 microliter reaction volume. The reaction cocktail was pipetted in four steps in the following order: 1) 25 microliter of assay buffer (standard buffer/[gamma-^33P]-ATP); 2) 10 microliter of ATP solution (in H2O); 3) 5 microliter of test compound (in 10% DMSO); 4) 10 microliter of enzyme/substrate mixture.
(§5) As a parameter for assay quality, the Z′-factor (Zhang et al., J. Biomol. Screen. 2: 67-73, 1999) for the low and high controls of each assay plate (n=8) was used. ProQinase's criterion for repetition of an assay plate is a Z′-factor below 0.4.

CDK12 = target: T2, CDK12 (Homo sapiens, UniProt Q9NYV4); assay: Radiometric kinase assay (33PanQinase); format: biochemical; details: read-out: Inhibition of CDK Activity (molar inhibition in a radiometric assay)
T2 construct: either as full-length or enzymatically active fragments; purchased ProQinase GmbH (Reaction Biology)
Method: as §4, §5

CDK13 = target: T3, CDK13 (Homo sapiens, UniProt Q14004); assay: Radiometric kinase assay (33PanQinase); format: biochemical; details: read-out: Inhibition of CDK Activity (molar inhibition in a radiometric assay)
T3 construct: either as full-length or enzymatically active fragments; purchased ProQinase GmbH (Reaction Biology)
Method: as §4, §5

CDK7 = target: T4, CDK7 (Homo sapiens, UniProt P50613); assay: Radiometric kinase assay (33PanQinase); format: biochemical; details: read-out: Inhibition of CDK Activity (molar inhibition in a radiometric assay)
T4 construct: either as full-length or enzymatically active fragments; purchased ProQinase GmbH (Reaction Biology); host or cells: Sf9 insect cells or E. coli
Method: as §4, §5

CDK9 = target: T5, CDK9 (Homo sapiens, UniProt P50750); assay: Radiometric kinase assay (33PanQinase); format: biochemical; details: read-out: Inhibition of CDK Activity (molar inhibition in a radiometric assay)
T5 construct: either as full-length or enzymatically active fragments; purchased ProQinase GmbH (Reaction Biology); host or cells: Sf9 insect cells or E. coli
Method: as §4, §5

RNA polymerase II [2] = assay: Ex vivo RNA polymerase II phosphorylation (pS2/S2) in human PBMCs; format: cell-based; details: PBMC, hPBMCs, 2 hours
Method: as §3

[3] = OVCAR-3 (no washout), exposed for 72 hours
[4] = OVCAR-3 (w/washout), 2 hour exposure, washout, 72 hour proliferation
[5] = HCC70 (no washout), exposed for 72 hours
[6] = HCC70 (w/washout), 2 hour exposure, washout, 72 hour proliferation

T3 sequence (Q14004 whole entry, the tested form may be a part): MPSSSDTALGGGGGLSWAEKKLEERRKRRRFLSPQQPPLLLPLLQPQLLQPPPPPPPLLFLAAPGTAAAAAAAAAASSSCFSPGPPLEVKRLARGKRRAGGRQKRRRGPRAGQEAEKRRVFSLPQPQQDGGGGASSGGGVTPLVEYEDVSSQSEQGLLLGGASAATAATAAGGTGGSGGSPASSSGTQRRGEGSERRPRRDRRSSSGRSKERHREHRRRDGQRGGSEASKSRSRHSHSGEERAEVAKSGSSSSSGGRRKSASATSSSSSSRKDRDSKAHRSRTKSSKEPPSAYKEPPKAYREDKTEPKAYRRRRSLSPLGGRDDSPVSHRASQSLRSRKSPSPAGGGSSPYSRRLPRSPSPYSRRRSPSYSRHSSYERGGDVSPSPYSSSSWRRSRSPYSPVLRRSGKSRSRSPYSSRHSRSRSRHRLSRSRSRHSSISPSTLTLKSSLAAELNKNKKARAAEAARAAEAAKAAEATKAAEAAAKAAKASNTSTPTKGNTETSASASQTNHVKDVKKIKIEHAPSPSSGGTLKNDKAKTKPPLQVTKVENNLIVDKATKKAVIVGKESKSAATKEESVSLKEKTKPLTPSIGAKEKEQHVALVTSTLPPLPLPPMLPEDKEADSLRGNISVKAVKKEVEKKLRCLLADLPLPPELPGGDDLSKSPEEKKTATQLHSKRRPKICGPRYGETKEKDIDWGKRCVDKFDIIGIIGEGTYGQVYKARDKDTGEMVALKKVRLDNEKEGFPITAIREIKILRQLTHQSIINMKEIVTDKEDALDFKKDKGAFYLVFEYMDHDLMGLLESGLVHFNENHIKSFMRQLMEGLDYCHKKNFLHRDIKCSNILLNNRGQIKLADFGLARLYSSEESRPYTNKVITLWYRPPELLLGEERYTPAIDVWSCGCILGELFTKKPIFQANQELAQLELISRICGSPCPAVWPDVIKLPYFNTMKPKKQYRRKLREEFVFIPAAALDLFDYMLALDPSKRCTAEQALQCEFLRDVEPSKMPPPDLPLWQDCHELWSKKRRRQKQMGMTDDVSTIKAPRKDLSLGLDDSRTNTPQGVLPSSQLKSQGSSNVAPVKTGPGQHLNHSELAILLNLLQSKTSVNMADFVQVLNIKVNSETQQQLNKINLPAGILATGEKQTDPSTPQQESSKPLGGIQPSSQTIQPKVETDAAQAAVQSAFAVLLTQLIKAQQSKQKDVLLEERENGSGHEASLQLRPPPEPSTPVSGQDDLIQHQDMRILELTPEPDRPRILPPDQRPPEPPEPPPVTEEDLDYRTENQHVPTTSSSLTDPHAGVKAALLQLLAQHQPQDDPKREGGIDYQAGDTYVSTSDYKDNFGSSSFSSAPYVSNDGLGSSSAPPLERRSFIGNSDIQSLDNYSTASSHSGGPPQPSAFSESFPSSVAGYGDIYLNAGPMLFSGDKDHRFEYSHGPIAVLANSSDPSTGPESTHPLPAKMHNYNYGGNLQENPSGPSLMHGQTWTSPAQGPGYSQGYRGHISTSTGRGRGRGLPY
T3 sequence (O75909 whole entry partner, the tested form may be a part): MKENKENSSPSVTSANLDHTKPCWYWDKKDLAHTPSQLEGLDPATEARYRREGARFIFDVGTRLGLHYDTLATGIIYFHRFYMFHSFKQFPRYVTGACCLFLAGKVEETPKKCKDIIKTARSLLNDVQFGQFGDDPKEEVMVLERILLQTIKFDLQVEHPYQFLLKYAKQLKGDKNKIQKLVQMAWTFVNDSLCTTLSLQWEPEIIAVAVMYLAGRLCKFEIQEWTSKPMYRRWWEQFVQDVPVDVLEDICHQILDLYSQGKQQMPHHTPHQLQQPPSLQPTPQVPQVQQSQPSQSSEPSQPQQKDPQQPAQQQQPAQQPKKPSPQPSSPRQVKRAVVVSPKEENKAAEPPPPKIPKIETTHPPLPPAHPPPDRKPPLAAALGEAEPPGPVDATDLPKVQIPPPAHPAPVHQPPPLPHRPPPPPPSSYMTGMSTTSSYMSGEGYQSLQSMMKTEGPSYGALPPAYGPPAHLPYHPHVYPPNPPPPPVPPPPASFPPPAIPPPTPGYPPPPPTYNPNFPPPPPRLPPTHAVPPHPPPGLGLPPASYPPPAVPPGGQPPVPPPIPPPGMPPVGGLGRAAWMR
T4 sequence (P50613 whole entry, the tested form may be a part): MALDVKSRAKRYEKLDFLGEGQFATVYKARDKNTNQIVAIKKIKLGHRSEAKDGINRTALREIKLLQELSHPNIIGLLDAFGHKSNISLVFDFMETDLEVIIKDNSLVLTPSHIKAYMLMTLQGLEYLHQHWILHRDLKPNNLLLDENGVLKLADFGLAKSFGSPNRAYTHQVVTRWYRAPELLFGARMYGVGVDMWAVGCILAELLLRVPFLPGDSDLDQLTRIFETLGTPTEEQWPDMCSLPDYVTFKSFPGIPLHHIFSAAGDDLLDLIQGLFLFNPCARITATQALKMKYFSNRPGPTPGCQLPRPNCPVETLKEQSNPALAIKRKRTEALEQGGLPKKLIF
T4 sequence (P51946 whole entry partner, the tested form may be a part): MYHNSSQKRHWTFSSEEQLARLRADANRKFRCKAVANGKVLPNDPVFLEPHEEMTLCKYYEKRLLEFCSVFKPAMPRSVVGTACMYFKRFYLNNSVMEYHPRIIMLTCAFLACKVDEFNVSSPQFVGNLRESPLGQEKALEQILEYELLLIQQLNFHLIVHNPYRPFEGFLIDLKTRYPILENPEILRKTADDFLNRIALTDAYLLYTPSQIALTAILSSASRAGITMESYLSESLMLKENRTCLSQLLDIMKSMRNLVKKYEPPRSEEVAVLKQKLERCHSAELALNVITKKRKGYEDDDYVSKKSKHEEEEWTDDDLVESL
T4 sequence (P51948 whole entry partner, the tested form may be a part): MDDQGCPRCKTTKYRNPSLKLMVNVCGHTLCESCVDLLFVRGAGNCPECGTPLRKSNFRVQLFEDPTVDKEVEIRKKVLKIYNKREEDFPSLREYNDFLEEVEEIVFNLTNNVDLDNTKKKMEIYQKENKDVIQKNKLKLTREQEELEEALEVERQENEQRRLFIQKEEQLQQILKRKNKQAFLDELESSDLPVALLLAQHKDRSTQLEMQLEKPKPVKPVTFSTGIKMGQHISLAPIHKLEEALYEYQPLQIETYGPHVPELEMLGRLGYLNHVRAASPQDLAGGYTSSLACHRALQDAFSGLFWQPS
T5 sequence (P50750 whole entry, the tested form may be a part): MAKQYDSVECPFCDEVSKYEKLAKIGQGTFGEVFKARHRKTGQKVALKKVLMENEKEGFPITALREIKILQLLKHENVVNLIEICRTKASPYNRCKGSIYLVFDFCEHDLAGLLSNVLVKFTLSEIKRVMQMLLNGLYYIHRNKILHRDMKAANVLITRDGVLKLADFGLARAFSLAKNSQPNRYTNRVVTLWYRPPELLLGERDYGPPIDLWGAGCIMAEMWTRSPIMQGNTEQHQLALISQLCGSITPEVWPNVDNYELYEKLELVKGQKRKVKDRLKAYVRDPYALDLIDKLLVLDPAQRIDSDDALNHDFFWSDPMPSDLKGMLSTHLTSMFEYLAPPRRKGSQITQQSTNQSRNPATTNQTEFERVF
T5 sequence (O60563 whole entry partner, the tested form may be a part): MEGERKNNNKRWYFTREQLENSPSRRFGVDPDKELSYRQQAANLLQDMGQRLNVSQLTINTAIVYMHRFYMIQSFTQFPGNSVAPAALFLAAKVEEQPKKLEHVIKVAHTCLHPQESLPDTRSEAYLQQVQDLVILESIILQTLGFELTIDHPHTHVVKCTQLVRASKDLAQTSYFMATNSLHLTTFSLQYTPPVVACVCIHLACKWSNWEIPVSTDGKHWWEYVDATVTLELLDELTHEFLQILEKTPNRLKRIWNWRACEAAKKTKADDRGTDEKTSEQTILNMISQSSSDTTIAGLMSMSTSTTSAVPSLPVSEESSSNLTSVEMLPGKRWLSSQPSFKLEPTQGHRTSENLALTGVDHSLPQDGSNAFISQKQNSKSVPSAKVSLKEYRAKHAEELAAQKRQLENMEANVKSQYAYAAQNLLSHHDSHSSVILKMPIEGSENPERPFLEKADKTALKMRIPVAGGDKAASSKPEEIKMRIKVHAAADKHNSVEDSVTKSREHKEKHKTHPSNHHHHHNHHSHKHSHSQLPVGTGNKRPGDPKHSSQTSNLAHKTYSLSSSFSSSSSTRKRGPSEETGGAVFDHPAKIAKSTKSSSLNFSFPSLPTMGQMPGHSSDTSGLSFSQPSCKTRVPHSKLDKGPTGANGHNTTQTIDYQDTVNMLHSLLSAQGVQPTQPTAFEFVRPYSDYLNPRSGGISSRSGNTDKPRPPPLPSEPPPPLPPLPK

Compound	pIC50 (OVCAR-3 cells; [3])	pIC50 (OVCAR-3 cells; [4])	pIC50 (HCC70 cells; [5])	pIC50 (HCC70 cells; [6])	pIC50 (RNA polymerase II [1])	pIC50 (CDK2)	pIC50 (CDK12)	pIC50 (CDK13)	pIC50 (CDK7)	pIC50 (CDK9)	pIC50 (RNA polymerase II [2])
C=CC(=O)Nc1ccc(C(=O)N2CC[C@@H](Nc3ncc(C#N)cn3)C2)cc1 [Compound 4, (R)-N-(4-(3-((5-cyanopyrimidin-2-yl)amino)pyrrolidine-1-carbonyl)phenyl)acrylamide]	7.51	6.75	7.49	6.87	6.74	5.12	6.88	6.53	5.16	5.40	6.78
C=CC(=O)Nc1ccc(C(=O)N2CC[C@@H](Nc3ncc(Cl)c(OC)n3)C2)cc1 [Compound 1, (R)-N-(4-(3-((5-chloro-4-methoxypyrimidin-2-yl)amino)pyrrolidine-1-carbonyl)phenyl)acrylamide]	8.35	7.08	8.29	7.85	7.67	5.94	7.67	7.59	5.96	6.54	7.71

From patent publication US20230074545A1, “TREATMENT OF CANCER WITH CDK12/13 INHIBITORS” (Kinnate Biopharma Inc., priority 2019, published 2023)
